Reference: PMC4383003, “Transfer hydrogenation catalysis in cells as a new approach to anticancer drug design” (Nature Communications, 2015)

How the values were obtained:
[1] = Transfer hydrogenation of NAD+ to 1,4-NADH with formate, followed by 1H NMR; conditions: NAD+ 2 mol equiv, formate 25 mol equiv, 310 K, pH* 7.2
Procedure: Complexes 1–7 were dissolved in MeOH-d4/D2O (5:1 v/v, 1.4 mM, 4 ml). Solutions of sodium formate (35 mM, 4 ml) and NAD^+ in D2O (2.8 mM, 2 ml) were also prepared and incubated at 310 K. In a typical experiment, 200-μl aliquots of each solution were added to a 5-mm NMR tube and the pH* adjusted to 7.2±0.1 (total volume 0.635 ml, final concentrations: Ru complex 0.44 mM; NAD^+ 0.88 mM; formate 11.02 mM; molar ratio 1:2:25). ^1H NMR spectra were recorded at 310 K every 162 s until the completion of the reaction.
Molar ratios of NAD^+ and NADH were determined by integrating the peaks at 9.33 and 6.96 p.p.m. (NAD^+ and 1,4-NADH, respectively). The turnover number for the reaction was calculated as follows: […]
where In is the integral of the signal at n p.p.m. and [NAD^+]0 is the concentration of NAD^+ at the start of the reaction.

[2] = tested on: A2780 human ovarian cancer cells; assay: In vitro growth inhibition assay (SRB), A2780; assay type: cell-based; conditions: A2780, 24 h drug exposure, no formate
Procedure: A2780 human ovarian carcinoma and MRC5 human fetal lung fibroblasts were obtained from the European Collection of Cell Cultures. Both cell lines were grown in Roswell Park Memorial Institute medium (RPMI-1640) supplemented with 10% of fetal calf serum, 1% of 2 mM glutamine and 1% penicillin/streptomycin. All cells were grown as adherent monolayers at 310 K in a 5% CO2-humidified atmosphere and passaged at ca. 70–80% confluency.
The antiproliferative activity of complexes 1–8 was determined in A2780 ovarian cancer cells and MRC5 fibroblasts. Briefly, 96-well plates were used to seed 5,000 cells per well. The plates were left to pre-incubate with drug-free medium at 310 K for 48 h before adding different concentrations of the compounds to be tested. A drug exposure period of 24 h was allowed. After this, supernatants were removed by suction and each well was washed with PBS. A further 72 h were allowed for the cells to recover in drug-free medium at 310 K. The sulforhodamine B (SRB) assay was used to determine cell viability. IC50 values, as the concentration that causes 50% cell death, were determined as duplicates of triplicates in two independent sets of experiments and their s.d. were calculated.

[3] = tested on: NAD^+/NADH ratio in A2780 cells; assay: NAD+/NADH determination in cells; assay type: cell-based, human
Procedure: Experiments to determine the NAD^+/NADH ratio in A2780 ovarian cancer cells exposed to complex 2 were carried out using the NAD^+/NADH assay kit from Abcam (ab65348) according to the manufacturer’s instructions. Briefly, A2780 cells were seeded in six-well plates at a density of 1.0 × 10^6 cells per well. […] These concentrations of sodium formate were also used on their own as a second set of negative controls. Drug exposure was allowed for 24 h, after which all supernatants were removed by suction and wells were washed with PBS. Cells were treated with trypsin, detached and counted before being pelleted by centrifugation. Cell pellets were extracted using the NAD/NADH extraction buffer and filtered using a 10-kDa-molecular weight cutoff filter. Samples were split into two, the first half was used to determine total NADt (NAD+NADH), and the second half to determine NADH after heating the samples at 333 K for 30 min. The absorbance at 450 nm was normalized against the protein content in each sample determined using the Bradford assay.
Experiments to determine the time dependence of the NAD/NADH ratio in A2780 ovarian cancer cells exposed to complex 2 were carried out using the NAD^+/NADH assay kit as described above with the following modifications.

CT-DNA = assay: Circular dichroism of CT-DNA; assay type: binding, calf; conditions: different concentrations of complex 2
Procedure: Supplementary Figure 4: Circular dichroism spectra of CT-DNA (1 mM) in red and CT-DNA (1 mM)/complex 2 (mol ratio 3:1) in black. Spectra were recorded under the same conditions, using (A) cacodylate buffer (2 mM, pH 7.4) and NaCl (20 mM) at 298 K, (B) PBS buffer (2 mM, pH 7.4) and NaCl (20 mM).
(1 picture or pasted object on this page, not shown here) […]
the nucleobases.11 Destabilization of DNA can result in a decrease of the melting […]
In the presence of complex 8, the melting temperature of CT-DNA increased In agreement with the literature, 12 by 14 K, in 2 mM NaCl, 2 mM cacodylate buffer.
This increase is due to Ru binding to DNA as well as intercalation. 12 However, upon increasing the chloride concentration by ca. 10x (20 mM NaCl) the melting temperature of CT-DNA in the presence of complex 8, increased only by 7 K. This effect has previously been reported and it is attributed to the partial inhibition of hydrolysis, and, therefore, inhibition of coordination to DNA. 12, 13
Experiments performed in the presence of complex 2, in 2 mM cacodylate buffer and […]
NaCl, no decrease of the melting temperature was observed. These experiments […]
Furthermore, strong binding to DNA can induce chirality in the metal complex, generating a CD signal. 14 CD spectra of CT-DNA in the presence of different concentrations of complex 2 were recorded (Supplementary Figure 4). […]

A2780 cells = assay: Induction of necrosis (7-ADD flow cytometry); assay type: cell-based, human; conditions: A2780, complex 2 in presence and absence of 2 mM sodium formate, 24 h
Procedure: Flow cytometry analysis of necrosis in A2780 cells caused by exposure to complex 2 and sodium formate was carried out using a Apotosis/Necrosis detection kit (Abcam) according to the manufacturer’s instructions. […] Cells were harvested using trypsin and stained using the membrane-impermeable nuclear dye 7-ADD (Ex/Em 546/647 nm). After staining in the dark, cell pellets were analysed in a Becton Dickinson FACScan Flow Cytometer. For positive-necrosis controls, A2780 cells were exposed to methanol.

Cc1ccc(C(C)C)cc1.Cc1ccc(S(=O)(=O)[N-]CCN)cc1.[Cl-].[Ru+2] [Complex 2, [(p-cym)Ru(TsEn)Cl]]
TOF D2O/MeOH-d4 ([1]; 23% MeOH-d4/77% D2O): 2.88 ± 0.06 h⁻¹
TOF D2O ([1]; D2O): 1.58 ± 0.04 h⁻¹
IC50 [2]: 13.6 ± 0.6 µM
apparent TOF (TOFap) for conversion of NAD+ to NADH in cells ([3]; A2780, 4.5 μM complex 2 and 2 mM sodium formate, 0-24 h): 0.19 ± 0.01 h⁻¹
NAD+/NADH ratio ([3]; A2780, complex 2, 24 h, 2 mM formate): 1.1
NAD+/NADH ratio ([3]; A2780, complex 2, 24 h, no formate): 4.5
NAD+/NADH ratio ([3]; A2780, complex 2 and 2 mM sodium formate, after 12 h): 0.74
NAD+/NADH ratio ([3]; A2780, complex 2 and 2 mM sodium formate, after 24 h): 0.98
NAD+/NADH ratio ([3]; A2780, complex 2 and 2 mM sodium formate, t=4 h): 0.83
changes in CD spectra of CT-DNA (CT-DNA): No changes
induction of necrosis (A2780 cells): no cellular necrosis
